Source: patent US10548982B2, “Reversible covalent linkage of functional molecules” (priority 2009, dated 2020)

Tested on: GIRK currents
Assay: patch-clamp controls: inhibition of the activated GIRK currents
Assay type: cell-based, human
Description: HEK 293 cells expressing HKIR3.1/3.2 channel and human somatostatin receptor 2 were treated with these compounds, and whole cell patch-clamp current recordings taken. […] Cell Culture
Whole cell patch-clamp current recordings were performed with an Axopatch 200B amplifier (Axon Instruments) using fire-polished pipettes with a resistance of 3-4 MS pulled from filamented borosilicated glass capillaries (Harvard Apparatus, 1.5 mm OD×1.17 mm ID). Data was acquired and analysed via a Digidata 1322A interface (Axon Instruments) and pCLAMP software (version 8.1, Axon Instruments). A fast perfusion system was used to apply somatostatin and analogues (Rapid Solution Changer, RSC-160, Bio-Logic France). Cells were clamped at −60 mV. The extracellular solution was (mM): NaCl 80, KCl 60, CaCl2 2, MgCl2 1, HEPES 10, NaH2PO4 0.33, glucose 10, pH 7.4; while the intracellular solution was (mM): K gluconate 110, KCl 20, NaCl 10, MgCl2 1, MgATP 2, EGTA 2 GTP 0.3, pH 7.4. After agonist application, current activated with a delay “lag” followed by a rapid rise to peak amplitude “time to peak”. After removal of the agonist, the current decays back to baseline. For each cell it was assessed if flow artifacts resulting from the pressure of drug application were present. This was done by applying bath solution from one of the sewer pipes at the beginning of the recordings. […]

Row | Substance | GIRK currents after treatment of cells with Pertussis toxin (control) (pertussis toxin 100 ng/ml, cells incubated overnight) | GIRK currents after GIRK inhibitor Tertiapin Q (control) (Tertiapin 100 nM)
1 | Pertussis toxin | currents were largely inhibited | 
2 | Tertiapin Q |  | currents were largely inhibited
